Measured values from patent publication EP2822595B1, “SPHINGOSINE-1 -PHOSPHATE RECEPTORS MODULATORS FOR IMPROVING VACCINE IMMUNIZATION” (Istituto Superiore di Sanità, priority 2012, dated 2013).
Read-outs that look alike come from different tables or passages of the source.

Legend:
[1] = tested on: TT-specific antibody responses; type: in vivo, BALB/c mice; details: for titre of TT-specific IgA antibodies: one week after the recall dose, vs TT+CT without treatment
[2] = tested on: TT-specific antibody secreting cells (ASC); type: in vivo, BALB/c mice; details: bone marrow
[3] = tested on: antigen-specific CD4^+ and CD8^+ T lymphocytes; assay: CFSE proliferation assay of TT-specific T lymphocytes after intranasal immunization; type: in vivo, BALB/c mice
[4] = tested on: Ova-specific CD4^+ and CD8^+ T lymphocytes; type: in vivo, BALB/c mice; details: 8 months after the fourth immunization, vs non treated
[5] = tested on: TT-specific antibody responses; type: in vivo, BALB/c mice; details: sera
[6] = tested on: antigen-specific CD4^+ and CD8^+ proliferating cells; assay: CFSE proliferation assay of TT-specific T lymphocytes after systemic (intraperitoneal) immunization; type: in vivo, BALB/c mice; details: 4 months after the second intraperitoneal immunization, vs non treated, p < 0.05
[7] = tested on: TT-specific antibody responses; type: in vivo, BALB/c mice; details: FTY720 0.5 mg/Kg intragastric 48 and 24 hours before intranasal TT+CT
[8] = tested on: S1P receptors (S1P1, S1P3, S1P4 e S1P5); details: 4 of 5 S1P receptors (S1P1, S1P3, S1P4 e S1P5); cited from earlier work
[9] = tested on: patients affected by Multiple Sclerosis; details: cited from earlier work
[10] = serum, TT-specific, TT+CT intranasal plus FTY720 vs without, at different analyzed kinetic points
[11] = draining (mediastinal) lymph nodes, two weeks after the fourth immunization, vs immunized non treated mice, p < 0.05
[12] = draining lymph nodes, 8 months after the fourth immunization, one week after one recall dose, vs non treated, p < 0.05
[13] = spleen, 8 months after the fourth immunization, after one recall dose, vs non treated
[14] = spleen, two weeks after the fourth immunization, treated vs non treated
[15] = oral, 0.5 and 1.25 mg a day, phase III clinical trials

For `CCCCCCCCc1ccc(CCC(N)(CO)CO)cc1.Cl` [FTY720, 2-amino-2-(2-(4-octylphenyl)ethyl)propane-1,3-diol hydrochloride], the “titre of TT-specific IgA antibodies” value ([1]; saliva) was “higher titres”, the “titre of IgG1 subclass” value [1, 10] was “Increase of the titre” and the “titre of IgG2a subclass” value [1, 10] was “Increase of the titre”. The “anti-TT IgG antibody titre” value ([1]; serum, four months after the fourth immunization (pre-boost), vs immunized mice without treatment) was “maintained at higher levels”, the “IgG antibodies specific for the TT” value ([1]; serum, one week after boost given four months after the fourth immunization, vs immunized mice without treatment) was “higher levels” and the “anti-tetanus IgG antibody titre” value ([1]; serum, one week after the fourth intranasal immunization, TT+CT plus FTY720 (761) vs TT+CT without treatment (304), apparently times over TT only) was 761. The “anti-tetanus IgG antibody titre” value ([1]; serum, one week after the second intranasal immunization with TT+CT, FTY720 0.5 mg/Kg intragastric the day after first and second immunization, TT+CT without treatment: 54 times) was 305 times with respect to the titre of mice which received only TT, the “anti-tetanus IgG antibody titre” value ([1]; serum, one week after the third intranasal immunization, TT+CT plus FTY720 vs TT+CT without treatment) was “increase” and the “titre of TT-specific IgA antibodies” value ([1]; vaginal washes (VW)) was “higher titres”. For the same compound, the “number of anti-TT IgG ASC” value ([2]; two weeks after the fourth immunization, immunized and not treated mice: 60) was 115 ASC/1×10^6 of cells, the “number of anti-TT IgA ASC” value ([2]; two weeks after the fourth immunization, non treated: 40) was 80 ASC/1×10^6 of cells and the “number of anti-TT IgG ASC” value ([2]; two weeks after the recall dose (4 months after fourth immunization), non treated: 123) was 240 ASC/1×10^6 of cells. For the same compound, the “number of anti-TT IgA ASC” value ([2]; two weeks after the recall dose, non treated: 58) was 136 ASC/1×10^6 of cells, the “proliferation of antigen-specific CD4^+ T lymphocytes” value [3, 11] was “significantly higher” and the “proliferation of antigen-specific CD8^+ T lymphocytes” value [3, 11] was “significantly higher”. For the same compound, the “proliferation of antigen-specific CD4^+ T lymphocytes” value [3, 12] was “higher”, the “proliferation of antigen-specific CD8^+ T lymphocytes” value [3, 12] was “higher” and the “percentage of antigen-specific CD4^+ T lymphocytes” value [3, 13] was “higher percentage”. For the same compound, the “percentage of antigen-specific CD8^+ T lymphocytes” value [3, 13] was “higher percentage”, the “proliferation of antigen-specific CD4^+ T lymphocytes” value [3, 14] was “comparable” and the “proliferation of antigen-specific CD8^+ T lymphocytes” value [3, 14] was “comparable”. The “percentage of Ova-specific CD4^+ T lymphocytes” value ([4]; draining lymph nodes) was “higher percentage”, the “percentage of Ova-specific CD8^+ T lymphocytes” value ([4]; draining lymph nodes) was “higher percentage” and the “percentage of Ova-specific CD4^+ T lymphocytes” value ([4]; spleen) was “higher percentage”. The “percentage of Ova-specific CD8^+ T lymphocytes” value ([4]; spleen) was “higher percentage”, the “titre of anti-tetanus IgG antibodies, differences between the two groups” value ([5]; one month after the second intraperitoneal immunization, treated vs non treated, differences decreased) was “still detectable” and the “titre of anti-tetanus IgG antibodies” value ([5]; one week after the first intraperitoneal immunization with TT+CT, FTY720 0.5 mg/Kg intragastrically the day after immunization, TT+CT without treatment: 63 times) was 203 times with respect to the titre of mice immunized only with TT. The “titre of anti-tetanus IgG antibodies” value ([5]; one week after the second intraperitoneal immunization, TT+CT plus FTY720 (575) vs TT+CT without treatment (152), apparently times over TT only) was 575, the “percentage of antigen-specific CD4^+ proliferating cells” value ([6]; lymph nodes) was “higher percentage” and the “percentage of antigen-specific CD8^+ proliferating cells” value ([6]; lymph nodes) was “higher percentage”. The “percentage of antigen-specific CD4^+ proliferating cells” value ([6]; spleen) was “higher percentage”, the “percentage of antigen-specific CD8^+ proliferating cells” value ([6]; spleen) was “higher percentage” and the “titre of anti-tetanus IgG antibodies” value ([7]; one week after the second immunization, data not showed) was “only the titre of anti-tetanus IgG antibodies in mice immunized with TT and CT was appreciable”. The “titre of IgG antibody specific for the TT” value ([7]; one week after the third immunization) was “higher in mice immunized with TT and CT in the absence of treatment”, the “agonist activity at S1P receptors” value [8] was “strong agonist” and the infectious complications ([9]; mainly in patients who received the higher dose (1.25 mg a day)) was “some infectious complications”. For the same compound, the “effectiveness in Multiple Sclerosis patients” value [9, 15] was “effective” and the “tolerability in Multiple Sclerosis patients” value [9, 15] was “well tolerated”.
